This data set can be described thus: Translational diffusion NMR (DOSY). It is filed as physicochemical. The method, then: (b) Translational diffusion NMR (DOSY): Peptide concentrations were the same as those used in the 1D-^1H-NMR spectra. Translational self-diffusion measurements were performed with the pulsed-gradient spin-echo sequence in the presence of 100% D2O. The following relationship existed between the translational self-diffusion coefficient, D, and the delays used during experiment acquisition:(2) I/I0=−exp(DγH2δ^2G^2(Δ−δ/3−τ/2)) where I is the peak intensity of a particular resonance (or a group of them) at any gradient strength; I0 is the maximum peak intensity of the same resonance(s) at the smallest gradient strength (that is, at 2% of the total power of the gradient coil); D is the translational self-diffusion constant (in cm^2 s^−1); δ is the duration (in s) of the gradient; G is the gradient strength (in T cm^−1); ∆ is the time (in s) between the gradients; γH is the gyromagnetic constant of the proton (in rad s^−1 T^−1); and τ is the recovery delay between the bipolar gradients (100 µs in our experiments). The gradient strength (G) was varied in 16 lineal steps, between 2 and 95% of the total power of the gradient coil of the probe. The gradient strength was calibrated by using the value of D for the residual proton water line in a sample containing 100% D2O placed in a 5 mm tube [42]. Data were plotted as I/I0 versus G^2, and the exponential factor of the curve was:(3) DγH2δ^2(Δ−δ/3−τ/2) from which D can be obtained. The duration of the gradient (δ) was 2.25 ms, and the time between the two gradients (∆) was set to 200 ms. The signal from the methyl groups between 1.1 and 0.70 ppm were used for integration of the intensity. A final concentration of 1% of dioxane was added to each peptide; the hydrodynamic radius, Rh, of each peptide was obtained for comparison by assuming that the Rh of dioxane was 2.12 Å [42]. The DOSY experiment was repeated twice with fresh samples for each peptide.

“Ac-GWAEGLHARPASIFVRAATATG-NH2 [Wild-type]”: the “D (translational diffusion coefficient)” value (DOSY, 10 °C, 100% D2O, 70-120 µM peptide, fitting errors, repeated twice) amounted to 1.95 ± 0.03 cm^2 s^−1 × 10^6. Also, the “Rh (in parentheses, from DOSY)” value (from comparison with the Rh of dioxane (2.12 Å)) was found to be 11 ± 1 Å.

(Values after paper PMC8509676, “Residual Helicity at the Active Site of the Histidine Phosphocarrier, HPr, Modulates Binding Affinity to Its Natural Partners” (International Journal of Molecular Sciences, 2021).)
